# Values of other authors, collected in patent US9795689B2, “Crosslinked polymer nano-assemblies and uses thereof” (University of Massachusetts, priority 2012, dated 2017).
smiles,measurement,value
"C=C(C)C(=O)OCCN(C(C)C)C(C)C [DPA, 2-(diisopropylamino)ethyl methacrylate]",pKa of the protonated form of the amine,around 6.2
